The values that follow come from patent US20110171274A1, “Fesoterodine Substantially Free of Dehydroxy Impurity” (ACTAVIS GROUP PTC EHF, priority 2008, published 2011).

Structures can show the parent of a compound that is named as a salt.

What all share (type): physicochemical
Data set [1] is described as follows: Particle size distribution by laser diffraction (Malvern Master Sizer 2000). The conditions noted are these: for Particle Size (D10) / Particle Size (D50) / Particle Size (D90): as crystallised from isopropyl alcohol / isopropyl ether. From the text: As used herein, “Particle Size Distribution (PSD)” means the cumulative volume size distribution of equivalent spherical diameters as determined by laser diffraction in Malvern Master Sizer 2000 equipment or its equivalent. “Mean particle size distribution, i.e., (D50)” correspondingly, means the median of said particle size distribution.
The important characteristics of the PSD were the (D90), which is the size, in microns, below which 90% of the particles by volume are found, and the (D50), which is the size, in microns, below which 50% of the particles by volume are found.

A short description of data set [2]: Solubility of fesoterodine fumarate in solvents.
Data set [3] can be described thus: Storage stability (crystalline form, lack of formation of impurities). The settings on record: about 25±2° C., relative humidity about 60±5%. An excerpt: The term “remains stable”, as defined herein, refers to lack of formation of impurities, while being stored as described hereinbefore.

On to `CC(C)C(=O)Oc1ccc(CO)cc1[C@H](CCN(C(C)C)C(C)C)c1ccccc1` [Example 8, Fesoterodine Fumarate], for which, in data set [1], the “Particle Size (D10)” value was determined as 4.518 μm, the “Particle Size (D50)” value is listed as 22.291 μm and the “Particle Size (D90)” value is recorded as 85.415 μm.

`CC(C)C(=O)Oc1ccc(CO)cc1[C@H](CCN(C(C)C)C(C)C)c1ccccc1` [Example 9, Fesoterodine Fumarate]: in data set [1], the “Particle Size (D10)” value is 4.485 μm, the “Particle Size (D50)” value is 31.876 μm and the “Particle Size (D90)” value is 110.282 μm.

For `CC(C)C(=O)Oc1ccc(CO)cc1[C@H](CCN(C(C)C)C(C)C)c1ccccc1` [Example 10, Fesoterodine fumarate], the “diameter of 90 volume-% of the particles (D90)” value in data set [1] (after fine-milling in a grinder for 3-4 minutes) is reported as “less than 50 microns”.

In the case of `CC(C)C(=O)Oc1ccc(CO)cc1[C@H](CCN(C(C)C)C(C)C)c1ccccc1` [Example 7, Fesoterodine Fumarate], in data set [1], the “Particle Size (D10)” value was found to be 4.243 μm, the “Particle Size (D50)” value was 14.875 μm and the “Particle Size (D90)” value was 90.272 μm.

As to `CC(C)C(=O)Oc1ccc(CO)cc1[C@H](CCN(C(C)C)C(C)C)c1ccccc1` [Fesoterodine fumarate, 2-[(1R)-3-[bis(1-methylethyl)amino]-1-phenylpropyl]-4-hydroxymethylphenyl isobutyrate], in data set [2] (aqueous solvents), the “solubility in aqueous solvents” value is “freely soluble”. For the same compound, the solubility in heptane result in data set [2] (heptane) was “practically insoluble”. For the same compound, in data set [2] (polar non protic solvents (acetone, DMF, DMSO, acetonitrile)), the “solubility in polar non protic solvents” value is “soluble”. For the same compound, the “solubility in polar protic organic solvents” value in data set [2] (some polar protic organic solvents (ethanol, methanol, glacial acetic acid, 2-propanol, propylene glycol)) was “soluble”. Besides, the solubility in toluene result in data set [2] (toluene) is recorded as “slightly soluble”. Moreover, the storage stability entry was “remains in the same crystalline form and stable” in data set [3] (3 months); “remains in the same crystalline form and stable” in data set [3] (at least one month).
